In ChEMBL document CHEMBL3046836, “Laboratory assays of select candidate insecticides for control of Dendroctonus ponderosae” (2011):
Values after ≈ are worked out from the molar mass of the structure shown. Values joined by “and” are separate entries in the source; they are usually repeats but may differ in a detail not shown here. Identical values can stand only once. Active and inactive are the calls of the source. No cut-off for these calls is given here.

Key:
Assay type in all cases: functional
Dendroctonus ponderosae [1] = test: Insecticidal activity against adult male Dendroctonus ponderosae assessed as mortality applied topically to ventral surface of insect mesothorax after 24 hr
Dendroctonus ponderosae [2] = test: Insecticidal activity against adult female Dendroctonus ponderosae assessed as mortality applied topically to ventral surface of insect mesothorax after 24 hr
Dendroctonus ponderosae [3] = test: Insecticidal activity against adult male Dendroctonus ponderosae assessed as mortality after 24 hr by filter paper assay
Dendroctonus ponderosae [4] = test: Insecticidal activity against adult female Dendroctonus ponderosae assessed as mortality after 24 hr by filter paper assay
Dendroctonus ponderosae [5] = test: Insecticidal activity against adult Dendroctonus ponderosae assessed as mortality applied topically to ventral surface of insect mesothorax after 24 hr
Dendroctonus ponderosae [6] = test: Insecticidal activity against adult Dendroctonus ponderosae assessed as mortality applied topically on the ventral surface of insect mesothorax after 12 hr; conditions: topical
Dendroctonus ponderosae [7] = test: Insecticidal activity against adult Dendroctonus ponderosae assessed as mortality after 24 hr by filter paper assay
Dendroctonus ponderosae [8] = test: Insecticidal activity against adult Dendroctonus ponderosae assessed as mortality after 12 hr by filter paper assay
[9] = Dendroctonus ponderosae, topical, 24 h, read-out: LC50
[10] = Dendroctonus ponderosae, 24 h, read-out: LC50

For `CNC(=O)c1cc(Cl)cc(C)c1NC(=O)c1cc(Br)nn1-c1ncccc1Cl` [CHLORANTRANILIPROLE], which LC50 (Dendroctonus ponderosae [1]; [9]) is on record?
The LC50 was 1750 µg/mL (≈ 3620 µM).

And the LC50 (Dendroctonus ponderosae [2]; [9])?
Its LC50 is 1110 µg/mL (≈ 2300 µM).

And the LC50 (Dendroctonus ponderosae [3]; [10])?
The LC50 was 11 µg/mL (≈ 22.8 µM).

And the LC50 (Dendroctonus ponderosae [4])?
The LC50 was 72.7 µg/mL (≈ 150 µM).

And the LC50 (Dendroctonus ponderosae [5]; [9])?
Its LC50 is 1380 µg/mL (≈ 2870 µM).

And the LC50 (Dendroctonus ponderosae [6])?
Its LC50 is 6300 µg/mL (≈ 13000 µM).

And the LC50 (Dendroctonus ponderosae [7]; [10])?
The LC50 was 34.9 µg/mL (≈ 72.2 µM).

And the LC50 (Dendroctonus ponderosae [8])?
The LC50 was “inactive”.

For `CNC(=O)c1cc(C#N)cc(C)c1NC(=O)c1cc(Br)nn1-c1ncccc1Cl` [CYANTRANILIPROLE], which LC50 (Dendroctonus ponderosae [1]) is on record?
Its LC50 is 301.5 µg/mL and 102 µg/mL.

And the LC50 (Dendroctonus ponderosae [2])?
The LC50 was 164.8 µg/mL (≈ 348 µM).

What about the LC50 (Dendroctonus ponderosae [2]; [9]) of the same compound?
Its LC50 is 258 µg/mL (≈ 544 µM).

And the LC50 (Dendroctonus ponderosae [3])?
Its LC50 is 1.7 µg/mL (≈ 3.59 µM).

And the LC50 (Dendroctonus ponderosae [3]; [10])?
Its LC50 is 3.4 µg/mL (≈ 7.18 µM).

And the LC50 (Dendroctonus ponderosae [5])?
Its LC50 is 141.5 µg/mL (≈ 299 µM).

What about the LC50 (Dendroctonus ponderosae [5]; [9]) of the same compound?
Its LC50 is 271 µg/mL (≈ 571 µM).

And the LC50 (Dendroctonus ponderosae [7])?
The LC50 was 3 µg/mL and 6.2 µg/mL.

What about the LC50 (Dendroctonus ponderosae [8]) of the same compound?
Its LC50 is 46.1 mg/L (≈ 97.3 µM).

What about the LC50 (Dendroctonus ponderosae [8]; Dendroctonus ponderosae, 12 h, read-out: LC50) of the same compound?
The LC50 was 56.8 mg/L (≈ 120 µM).
